In patent US7671065B2, “Pyridine derivatives as potassium ion channel openers” (Janssen Pharmaceutica N.V., priority 2005, dated 2010):

Biological target: T1, KATP channels (Homo sapiens, UniProt O60706+Q14654)
T1 construct: TE671 human medulloblastoma cells were obtained from ATCC; host or cells: TE671 human medulloblastoma cells
Assay: Potassium Channel Assay (FLIPR membrane potential dye, TE671 cells)
Type: cell-based
Conditions: TE671 human medulloblastoma cells, room temperature, fluorescence change monitored for 3 minutes
Description: TE671 human medulloblastoma cells were obtained from ATCC and grown in Dulbecco's modified Eagle's medium (DMEM) supplemented with 10% fetal bovine serum, 100 U/ml penicillin and 100 U/ml streptomycine.
The day before testing, the cells were plated in black 96-well plates at 50K/well. On the day of testing, the growth media was removed, then 100 μl of FLIPR buffer (20 mM HEPES, 120 mM NaCl, 2 mM KCl, 2 mM CaCl2, 1 mM MgCl2, 5 mM Glucose) and 100 μl of Membrane Potential Assay Dye (Molecular Devices) dissolved in FLIPR buffer were added to each well. The cells were incubated at room temperature for 15 to 30 min.
The effect of test compounds on KATP channels were evaluated on a fluorometric imaging plate reader (FLIPR, Molecular Devices) at room temperature. After a baseline period, 50 μl of 5× stock solution of test compound prepared in FLIPR buffer was added and fluorescence change was monitored for 3 minutes. After this reading, glyburide, a KATP channel blocker, was added to a final concentration of 5 μM to check the specificity of the test compound as a KATP channel opener. Hyperpolarization resulting from KATP channel opening was observed as a decrease in fluorescence intensity.
Representative compounds of the present invention were tested according to the procedure described above, with results as listed in Table 7 below.

T1 sequence (Q14654 whole entry): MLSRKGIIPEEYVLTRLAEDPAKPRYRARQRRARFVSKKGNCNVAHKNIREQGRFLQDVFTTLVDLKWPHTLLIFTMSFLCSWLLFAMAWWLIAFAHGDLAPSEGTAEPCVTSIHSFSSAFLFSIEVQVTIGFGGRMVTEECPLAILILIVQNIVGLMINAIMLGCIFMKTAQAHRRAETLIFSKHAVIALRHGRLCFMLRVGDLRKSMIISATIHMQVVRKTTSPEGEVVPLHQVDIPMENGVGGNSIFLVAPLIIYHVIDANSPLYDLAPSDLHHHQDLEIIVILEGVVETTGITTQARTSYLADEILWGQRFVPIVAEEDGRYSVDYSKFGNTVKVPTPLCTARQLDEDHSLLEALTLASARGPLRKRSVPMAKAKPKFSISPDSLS
T1 sequence (O60706 1-1549 isoform O60706-2): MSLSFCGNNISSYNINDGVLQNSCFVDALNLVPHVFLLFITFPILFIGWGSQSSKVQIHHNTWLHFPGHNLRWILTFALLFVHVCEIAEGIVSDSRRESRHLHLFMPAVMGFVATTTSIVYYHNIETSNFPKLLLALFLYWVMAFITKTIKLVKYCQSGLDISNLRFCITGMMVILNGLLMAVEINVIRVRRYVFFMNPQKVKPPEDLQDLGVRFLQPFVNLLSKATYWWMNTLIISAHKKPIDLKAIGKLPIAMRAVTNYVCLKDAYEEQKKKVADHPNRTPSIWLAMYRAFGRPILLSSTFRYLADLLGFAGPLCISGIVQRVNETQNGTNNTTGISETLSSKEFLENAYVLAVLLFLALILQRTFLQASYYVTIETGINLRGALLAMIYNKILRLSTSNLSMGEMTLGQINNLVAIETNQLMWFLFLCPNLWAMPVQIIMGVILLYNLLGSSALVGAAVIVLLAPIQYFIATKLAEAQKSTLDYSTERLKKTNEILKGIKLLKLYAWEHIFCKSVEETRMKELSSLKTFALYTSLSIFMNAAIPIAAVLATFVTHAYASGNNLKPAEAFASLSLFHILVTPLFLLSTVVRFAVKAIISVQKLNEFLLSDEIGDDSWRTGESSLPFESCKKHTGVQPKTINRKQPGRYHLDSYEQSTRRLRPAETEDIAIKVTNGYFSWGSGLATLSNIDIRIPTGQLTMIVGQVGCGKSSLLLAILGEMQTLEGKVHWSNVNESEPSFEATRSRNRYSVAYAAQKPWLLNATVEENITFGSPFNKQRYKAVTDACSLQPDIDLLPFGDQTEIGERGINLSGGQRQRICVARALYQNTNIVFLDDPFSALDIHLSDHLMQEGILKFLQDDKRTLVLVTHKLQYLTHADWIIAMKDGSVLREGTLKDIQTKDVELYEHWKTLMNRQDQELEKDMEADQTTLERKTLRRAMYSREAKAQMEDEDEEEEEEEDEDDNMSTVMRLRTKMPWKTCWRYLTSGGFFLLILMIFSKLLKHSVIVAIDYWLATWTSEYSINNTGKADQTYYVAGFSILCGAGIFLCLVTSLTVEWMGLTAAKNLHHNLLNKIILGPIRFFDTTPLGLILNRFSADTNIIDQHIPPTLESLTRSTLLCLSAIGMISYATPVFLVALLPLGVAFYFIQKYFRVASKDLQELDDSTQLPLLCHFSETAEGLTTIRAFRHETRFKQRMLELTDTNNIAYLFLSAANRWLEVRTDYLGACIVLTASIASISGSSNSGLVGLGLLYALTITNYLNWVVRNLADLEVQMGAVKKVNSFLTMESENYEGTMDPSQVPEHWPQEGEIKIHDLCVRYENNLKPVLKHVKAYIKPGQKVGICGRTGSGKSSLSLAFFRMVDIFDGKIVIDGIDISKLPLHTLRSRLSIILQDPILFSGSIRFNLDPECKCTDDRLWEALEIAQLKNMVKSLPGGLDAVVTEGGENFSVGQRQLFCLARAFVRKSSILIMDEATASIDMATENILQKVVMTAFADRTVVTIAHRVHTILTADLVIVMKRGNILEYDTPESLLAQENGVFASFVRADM

SMILES | % Stimulation [%] | EC50 [µM]
N#Cc1cccc(-c2ccncc2CO)c1 [Compound 50, 3-(3-Hydroxymethyl-pyridin-4-yl)-benzonitrile] | 19 | > 30
Cc1ccc(C(O)c2cnccc2-c2cccc(C#N)c2)cc1F (stereo not drawn) [Compound 22, 3-{3-[(3-Fluoro-4-methyl-phenyl)-hydroxy-methyl]-pyridin-4-yl}-benzonitrile] |  | 15.1
CN(C)c1ccc(C(O)c2cnccc2C(=O)c2ccccc2)cc1 (stereo not drawn) [Compound 44, {3-[(4-Dimethylamino-phenyl)-hydroxy-methyl]-pyridin-4-yl}-phenyl-methanone] |  | 17.4
CC(O)c1cnccc1C(=O)c1ccccc1 (stereo not drawn) [Compound 59, [3-(1-Hydroxy-ethyl)-pyridin-4-yl]-phenyl-methanone] |  | 26.8
COc1ccc(C=O)cc1-c1ccncc1C=O [Compound 53, 4-(5-Formyl-2-methoxy-phenyl)-pyridine-3-carbaldehyde] | 30 | > 30
CCOC(=O)c1cnc2cc(C(F)(F)F)ccc2c1-c1cccc(C(C)=O)c1 [Compound 7, 4-(3-Acetyl-phenyl)-7-trifluoromethyl-quinoline-3-carboxylic acid ethyl ester] | 2 | > 30
Cc1cc(C)c(C(O)c2cnccc2-c2cccc(C#N)c2)c(C)c1 (stereo not drawn) [Compound 35, 3-{3-[Hydroxy-(2,4,6-trimethyl-phenyl)-methyl]-pyridin-4-yl}-benzonitrile] | 37 | > 30
COc1ccc(CO)cc1-c1ccncc1CO [Compound 58] | 14 | > 30
OCc1cnccc1C(O)c1ccccc1 (stereo not drawn) [Compound 56, (3-Hydroxymethyl-pyridin-4-yl)-phenyl-methanol] | 33 | > 30
COc1ccc(C(O)c2cnccc2-c2cccc(C#N)c2)cc1 (stereo not drawn) [Compound 30, 3-{3-[Hydroxy-(4-methoxy-phenyl)-methyl]-pyridin-4-yl}-benzonitrile] | 7 | > 30
Cc1ccc(F)cc1C(O)c1cnccc1-c1cccc(C#N)c1 (stereo not drawn) [Compound 38, 3-{3-[(5-Fluoro-2-methyl-phenyl)-hydroxy-methyl]-pyridin-4-yl}-benzonitrile] | 63 | > 30
N#Cc1cccc(-c2ccncc2C(O)c2ccc(F)cc2)c1 (stereo not drawn) [Compound 20, 3-{3-[(4-Fluoro-phenyl)-hydroxy-methyl]-pyridin-4-yl}-benzonitrile] |  | 19.4
CCOC(=O)c1cnc2cc(C(F)(F)F)ccc2c1-c1ccccc1 [Compound 6, 4-Phenyl-7-trifluoromethyl-quinoline-3-carboxylic acid ethyl ester] | 42 | > 30
CCOC(=O)c1cnc2cc(C(F)(F)F)ccc2c1-c1cc(C)cc(OC)c1 [Compound 2, 4-(3-Methoxy-5-methyl-phenyl)-7-trifluoromethyl-quinoline-3-carboxylic acid ethyl ester] | 23 | > 30
CCOC(=O)c1cnc2cc(C(F)(F)F)ccc2c1-c1cccc(C=O)c1 [Compound 11, 4-(3-Formyl-phenyl)-7-trifluoromethyl-quinoline-3-carboxylic acid ethyl ester] | 2 | > 30
N#Cc1cccc(C2OC(O)c3cnccc32)c1 (stereo not drawn) [Compound 55, 3-(3-Hydroxy-1,3-dihydro-furor[3,4-c]pyridin-1-yl)-benzonitrile] | 24 | > 30
CCOC(=O)c1cnc2cc(C(F)(F)F)ccc2c1-c1cccc(CO)c1 [Compound 12, 4-(3-Hydroxymethyl-phenyl)-7-trifluoromethyl-quinoline-3-carboxylic acid ethyl ester] | 20 | > 30
N#Cc1cccc(-c2ccncc2C(O)c2cccc(F)c2)c1 (stereo not drawn) [Compound 21, 3-{3-[(3-Fluoro-phenyl)-hydroxy-methyl]-pyridin-4-yl}-benzonitrile] |  | 23.2
Cc1ccccc1C(O)c1cnccc1-c1cccc(C#N)c1 (stereo not drawn) [Compound 31, 3-{3-[Hydroxy-(2-methyl-phenyl)-methyl]-pyridin-4-yl}-benzonitrile] |  | 15
N#Cc1cccc(C(O)c2ccncc2CO)c1 (stereo not drawn) [Compound 57, 3-[Hydroxy-(3-hydroxymethyl-pyridin-4-yl)-methyl]-benzonitrile] | 16 | > 30
N#Cc1cccc(-c2ccncc2C=O)c1 [Compound 51, 3-(3-Formyl-pyridin-4-yl)-benzonitrile] | 48 | > 30
CCOC(=O)c1cnc2cc(C(F)(F)F)ccc2c1-c1cc(C(F)(F)F)cc(C(F)(F)F)c1 [Compound 3, 4-(3,5-Bis-trifluoromethyl-phenyl)-7-trifluoromethyl-quinoline-3-carboxylic acid ethyl ester] | 19 | > 30
CCOC(=O)c1cnc2cc(C(F)(F)F)ccc2c1-c1cccc(C#N)c1 [Compound 1, 4-(3-Cyano-phenyl)-7-trifluoromethyl-quinoline-3-carboxylic acid ethyl ester] | 36 | > 30
CCOC(=O)c1cnc2cc(C(F)(F)F)ccc2c1-c1cccc(C(F)(F)F)c1 [Compound 10, 7-Trifluoromethyl-4-(3-trifluoromethyl-phenyl)-quinoline-3-carboxylic acid ethyl ester] | 22 | > 30
CCOC(=O)c1ccc(-c2c(C(=O)OCC)cnc3cc(C(F)(F)F)ccc23)cc1 [Compound 4, 4-(4-Ethoxycarbonyl-phenyl)-7-trifluoromethyl-quinoline-3-carboxylic acid ethyl ester] | 38 | > 30
CCOC(=O)c1cnc2cc(C(F)(F)F)ccc2c1-c1cc(C(F)(F)F)ccc1F [Compound 8, 4-(2-Fluoro-5-trifluoromethyl-phenyl)-7-trifluoromethyl-quinoline-3-carboxylic acid ethyl ester] | 31 | > 30
COc1ccc(F)cc1C(O)c1cnccc1-c1cccc(C#N)c1 (stereo not drawn) [Compound 36, 3-{3-[(5-Fluoro-2-methoxy-phenyl)-hydroxy-methyl]-pyridin-4-yl}-benzonitrile] | 24 | > 30
OC1OC(c2ccccc2)c2ccncc21 (stereo not drawn) [Compound 65, 1-Phenyl-1,3-dihydro-furo[3,4-c]pyridin-3-ol] | 34 | > 30

The next compounds have a lower EC50 than those just listed; values first:

% Stimulation [%] | EC50 [µM] | SMILES
 | 10.2 | COc1ccccc1C(O)c1cnccc1-c1cccc(C#N)c1 (stereo not drawn) [Compound 28, 3-{3-[Hydroxy-(2-methoxy-phenyl)-methyl]-pyridin-4-yl}-benzonitrile]
 | 13.7 | COc1cccc(C(O)c2cnccc2-c2cccc(C#N)c2)c1 (stereo not drawn) [Compound 29, 3-{3-[Hydroxy-(3-methoxy-phenyl)-methyl]-pyridin-4-yl}-benzonitrile]
 | 10.5 | N#Cc1cccc(-c2ccncc2C(O)C(F)(F)F)c1 (stereo not drawn) [Compound 39, 3-[3-(2,2,2-Trifluoro-1-hydroxy-ethyl)-pyridin-4-yl]-benzonitrile]
 | 11.4 | N#Cc1cccc(-c2ccncc2C(O)c2ccc(F)c(F)c2)c1 (stereo not drawn) [Compound 23, 3-{3-[(3,4-Difluoro-Phenyl)-hydroxy-methyl]-pyridin-4-yl}-benzonitrile]
 | 6.27 | CCOC(=O)c1cnc2cc(C(F)(F)F)ccc2c1OS(=O)(=O)C(F)(F)F [Compound 15, 4-Trifluoromethanesulfonyloxy-7-trifluoromethyl-quinoline-3-carboxylic acid ethyl ester]
 | 14.3 | N#Cc1cccc(C(=O)c2ccncc2C(O)c2ccccc2)c1 (stereo not drawn) [Compound 48, 3-[3-(Hydroxy-phenyl-methyl)-pyridine-4-carbonyl]-benzonitrile]
 | 11.6 | COc1ccc(C(O)c2cnccc2C(=O)c2ccccc2)cc1F (stereo not drawn) [Compound 45, {3-[(3-Fluoro-4-methoxy-phenyl)-hydroxy-methyl]-pyridin-4-yl}-phenyl-methanone]
 | 14.5 | N#Cc1cccc(-c2ccncc2C(O)c2ccc(Cl)c(Cl)c2)c1 (stereo not drawn) [Compound 24, 3-{3-[(3,4-Dichloro-phenyl)-hydroxy-methyl]-pyridin-4-yl}-benzonitrile]
 | 8.48 | Cc1ccc(C(O)c2cnccc2-c2cccc(C#N)c2)cc1 (stereo not drawn) [Compound 32, 3-{3-[Hydroxy-(4-methyl-phenyl)-methyl]-pyridin-4-yl}-benzonitrile]
 | 7.97 | CC(C)C(O)c1cnccc1Br (stereo not drawn) [Compound 63, 1-(4-Bromo-pyridin-3-yl)-2-methyl-propan-1-ol]
 | 9.82 | N#Cc1cccc(-c2ccncc2C(O)c2cc(Cl)cc(Cl)c2)c1 (stereo not drawn) [Compound 25, 3-{3-[(3,5-Dichloro-phenyl)-hydroxy-methyl]-pyridin-4-yl}benzonitrile]
 | 10.7 | CC(C)(C)c1ccc(C(O)c2cnccc2-c2cccc(C#N)c2)cc1 (stereo not drawn) [Compound 27, 3-{3-[(4-tert-Butyl-phenyl)-hydroxy-methyl]-pyridin-4-yl}-benzonitrile]
 | 7.73 | CCOC(=O)c1cnc2cc(C(F)(F)F)ccc2c1-c1cc(C=O)ccc1OC [Compound 9, 4-(5-Formyl-2-methoxy-phenyl)-7-trifluoromethyl-quinoline-3-carboxylic acid ethyl ester]
